Source: ChEMBL document CHEMBL5500404, “Discovery and Development of NLRP3 Inhibitors Targeting the LRR Domain to Disrupt NLRP3-NEK7 Interaction for the Treatment of Rheumatoid Arthritis” (J Med Chem, 2024)
Active and inactive are the calls of the source. The calls are words filed in the database; no cut-off is given here.

How the values were obtained:
[1] = Cytotoxicity against human THP-1 cells assessed as cellular proliferation inhibition measured after 48 hrs by MTT assay; assay type: toxicity, cell-based
[2] = Half life in Sprague-Dawley rat at 20 mg/kg, IG measured upto 1440 mins by LC-MS/MS analysis; assay type: ADME, organism-based; conditions: in vivo, po
[3] = Tmax in Sprague-Dawley rat at 20 mg/kg, IG measured upto 1440 mins by LC-MS/MS analysis; assay type: ADME, organism-based; conditions: in vivo, po
[4] = Cmax in Sprague-Dawley rat at 20 mg/kg, IG measured upto 1440 mins by LC-MS/MS analysis; assay type: ADME, organism-based; conditions: in vivo, po
[5] = AUC (0 to t) in Sprague-Dawley rat at 20 mg/kg, IG measured upto 1440 mins by LC-MS/MS analysis; assay type: ADME, organism-based; conditions: in vivo, po
[6] = AUC (0 to infinity) in Sprague-Dawley rat at 20 mg/kg, IG measured upto 1440 mins by LC-MS/MS analysis; assay type: ADME, organism-based; conditions: in vivo, po
[7] = MRT (0 to t) in Sprague-Dawley rat at 20 mg/kg, IG measured upto 1440 mins by LC-MS/MS analysis; assay type: ADME, organism-based; conditions: in vivo, po
[8] = MRT (0 to infinity) in Sprague-Dawley rat at 20 mg/kg, IG measured upto 1440 mins by LC-MS/MS analysis; assay type: ADME, organism-based; conditions: in vivo, po
[9] = Apparent clearance during terminal phase in Sprague-Dawley rat at 20 mg/kg, IG measured upto 1440 mins by LC-MS/MS analysis; assay type: ADME, organism-based; conditions: in vivo, po
[10] = Apparent volume of distribution during terminal phase in Sprague-Dawley rat at 20 mg/kg, IG measured upto 1440 mins by LC-MS/MS analysis; assay type: ADME, organism-based; conditions: in vivo, po, read-out: Vz/F
[11] = Half life in Sprague-Dawley rat at 20 mg/kg, ip measured upto 720 mins by LC-MS/MS analysis; assay type: ADME, organism-based; conditions: in vivo
[12] = AUC (0 to t) in Sprague-Dawley rat at 20 mg/kg, ip measured upto 720 mins by LC-MS/MS analysis; assay type: ADME, organism-based; conditions: in vivo
[13] = AUC (0 to infinity) in Sprague-Dawley rat at 20 mg/kg, ip measured upto 720 mins by LC-MS/MS analysis; assay type: ADME, organism-based; conditions: in vivo, 12 h
[14] = MRT (0 to t) in Sprague-Dawley rat at 20 mg/kg, ip measured upto 720 mins by LC-MS/MS analysis; assay type: ADME, organism-based; conditions: in vivo
[15] = MRT (0 to infinity) in Sprague-Dawley rat at 20 mg/kg, ip measured upto 720 mins by LC-MS/MS analysis; assay type: ADME, organism-based; conditions: in vivo
[16] = Apparent volume of distribution during terminal phase in Sprague-Dawley rat at 20 mg/kg, ip measured upto 720 mins by LC-MS/MS analysis; assay type: ADME, organism-based; conditions: in vivo, read-out: Vz/F
[17] = Bioavailability in Sprague-Dawley rat at 20 mg/kg, ip measured upto 720 mins by LC-MS/MS analysis; assay type: ADME, organism-based; conditions: in vivo
[18] = test system: THP-M; assay: Inhibition of NLRP3 and […] protein-protein interaction in human THP-M cells assessed as suppression activation of NLRP3 inflammasome by affecting ASC oligomerization at 10 to 50 uM pretreated for 24 hrs followed by stimulated with LPS for 3 hrs and ATP for 1 hr by co-IP analysis; assay type: cell-based; conditions: dose 10-50 µM, time 28.0 hrs
[19] = test system: Rattus norvegicus; assay: Anti-inflammatory activity against complete Freund's adjuvant (CFA)-induced arthritis rat model assessed as synovial hyperplasia in rat synovium from the left rear ankle at 10 mg/kg, ip treated after 17 days of CFA challenge measured after 18 days (day 17 to 34) by H and E staining based assay relative to model group; assay type: functional, organism-based; conditions: time 18.0 day

SMILES | IC50 at 48 h [1] [µM] | further results
COCCCNC(=O)c1ccc(Cn2c(SCc3ccccn3)nc3ccncc32)cc1 | > 100 | –
CCCNC(=O)CCCCn1c(=O)c2ccccc2n(CC(=O)NCc2ccc(F)cc2)c1=O | > 100 | –
COCCCNC(=O)c1ccc(Cn2c(SCC=C(C)C)nc3ccncc32)cc1 | > 100 | –
CCOCCCNC(=O)c1ccc(CSc2nc3ccncc3n2Cc2cccc(F)c2)cc1 | > 100 | –
COC(=O)CCCCn1c(SCC2CCCCC2)nc2ccncc21 | > 100 | –
CC(C)c1ccc(Cn2c(SCC3CCCCC3)nc3ccncc32)cc1 | 77.3 | –
COCCNC(=O)c1ccc(Cn2c(SCC3CCCCC3)nc3ccncc32)cc1 | 96.3 | –
CC(C)OCCCn1c(=O)c2ccccc2n2c(CCC(=O)NCc3ccccc3)nnc12 | 65.5 | –
COCCCNC(=O)c1ccc(Cn2c(SCc3ccccc3)nc3ccncc32)cc1 | > 100 | –
COCCCNC(=O)c1ccc(Cn2c(SCc3ccc(F)cc3)nc3ccncc32)cc1 | > 100 | –
COCCCNC(=O)c1ccc(Cn2c(SCc3ccc(F)nc3)nc3ccncc32)cc1 | > 100 | –
COCCCNC(=O)c1ccc(Cn2c(SCc3cccnc3)nc3ccncc32)cc1 | > 100 | –
COCCCNC(=O)c1ccc(Cn2c(SCc3ccc(OC)cc3)nc3ccncc32)cc1 | > 100 | –
CCCCNC(=O)c1ccc(Cn2c(SCC3CCCCC3)nc3ccncc32)cc1 | > 100 | –
O=C(c1ccc(Cn2c(SCC3CCCCC3)nc3ccncc32)cc1)N1CCNCC1 | > 100 | half-life [2]: 3.93 h; Tmax [3]: 0.245 h; Cmax [4]: 280 ng/mL; AUC(0-t) at 24 h [5]: 733 ng·h/mL; AUC(0-inf) [6]: 906 ng·h/mL; MRT last at 24 h [7]: 2.89 h; MRT inf [8]: 4.86 h; CL/F [9]: 500 mL/min/kg; Vd/F [10]: 193 L/kg; half-life [11]: 1.11 h; AUC(0-t) at 12 h [12]: 1320 ng·h/mL; AUC [13]: 103322 ng·min/mL; MRT last at 12 h [14]: 0.615 h; MRT inf [15]: 1.32 h; Vd/F [16]: 4.96 L/kg; bioavailability [17]: 13.2%
O=C(c1ccc(Cn2c(SCC3CCCCC3)nc3ccncc32)cc1)N1CCCC1 | > 100 | –
COCCCNC(=O)c1ccc(Cn2c(SCC3CC3)nc3ccncc32)cc1 | > 100 | –
CCCc1ccc(Cn2c(SCC3CCCCC3)nc3ccncc32)cc1 | 87.6 | –
COCCCNC(=O)c1ccc(Cn2c(SCc3cccc(F)c3)nc3ccncc32)cc1 | > 100 | –
COCCCNC(=O)c1ccc(Cn2c(SCc3ccc([N+](=O)[O-])cc3)nc3ccncc32)cc1 | > 100 | –
COCCCNC(=O)c1ccc(Cn2c(SCc3ccc(Br)cc3)nc3ccncc32)cc1 | 90.3 | –
CCCCCNC(=O)c1ccc(Cn2c(SCC3CCCCC3)nc3ccncc32)cc1 | 87.5 | –
COCCCNC(=O)c1ccc(Cn2c(SCc3ccccc3F)nc3ccncc32)cc1 | 53.3 | –
COc1ccc(N2CCN(CCCNC(=O)c3nnc(Cc4ccc(F)cc4)o3)CC2)cc1 | > 100 | –
CC(=O)Nc1ccc(Cn2c(SCC3CCCCC3)nc3ccncc32)cc1 | > 100 | –
CCC(=O)Nc1ccc(Cn2c(SCC3CCCCC3)nc3ccncc32)cc1 | > 100 | –
CCOC(=O)c1ccc(Cn2c(SCC3CCCCC3)nc3ccncc32)cc1 | > 100 | inhibition [18]: Active

SMILES | IC50 at 48 h [1] [µM] | further results
COCCCNC(=O)c1ccc(Cn2c(SCC3CCCC3)nc3ccncc32)cc1 | > 100 | –
COCCCNC(=O)c1ccc(Cn2c(SCc3cc(F)cc(F)c3)nc3ccncc32)cc1 | > 100 | –
COCCCNC(=O)c1ccc(Cn2c(SCc3ccc(Cl)cc3)nc3ccncc32)cc1 | 23 | –
COCCCNC(=O)c1ccc(Cn2c(SCc3cccc(C)c3)nc3ccncc32)cc1 | > 100 | –
CNC(=O)c1ccc(Cn2c(SCC3CCCCC3)nc3ccncc32)cc1 | > 100 | –
CC(C)(O)c1coc(S(=O)(=O)NC(=O)Nc2c3c(cc4c2CCC4)CCC3)c1 | > 100 | Activity [19]: Active
CC(C)(C)c1ccc(Cn2c(SCC3CCCCC3)nc3ccncc32)cc1 | 93.5 | –
CCCC(=O)Nc1ccc(Cn2c(SCC3CCCCC3)nc3ccncc32)cc1 | > 100 | –
COc1ccc(C2=NN(C(=O)CSc3nnc(CNC(=O)COc4ccccc4)n3CCc3ccccc3)C(c3ccc(OC)cc3)C2)cc1 (configuration not stated) | > 100 | –
COCCCNC(=O)c1ccc(Cn2c(SCc3ccc(C(F)(F)F)cc3)nc3ccncc32)cc1 | 51.1 | –
NC(=O)c1ccc(Cn2c(SCC3CCCCC3)nc3ccncc32)cc1 | > 100 | –
COCCCNC(=O)c1ccc(Cn2c(SCc3ccc(C#N)cc3)nc3ccncc32)cc1 | > 100 | –
COc1ccc(N2CCN(CCCNC(=O)COCc3cc(-c4ccc5c(c4)OCO5)on3)CC2)cc1 | 85.2 | –
COCCCNC(=O)c1ccc(Cn2c(SCc3ccc(C)cc3)nc3ccncc32)cc1 | > 100 | –
COc1ccc(-c2[nH]c3ccccc3c2SCCNC(=O)c2ccc(S(=O)(=O)N3CCOCC3)cc2)cc1 | > 100 | –
O=C(c1ccc(Cn2c(SCC3CCCCC3)nc3ccncc32)cc1)N1CCOCC1 | > 100 | –
CCNC(=O)c1ccc(Cn2c(SCC3CCCCC3)nc3ccncc32)cc1 | > 100 | –
COCCCNC(=O)c1ccc(Cn2c(SCC3CCC3)nc3ccncc32)cc1 | > 100 | –
CNC(=O)CCn1c(SCC2CCCCC2)nc2ccncc21 | > 100 | –
COCCCNC(=O)c1ccc(Cn2c(SCc3cc(C)cc(C)c3)nc3ccncc32)cc1 | > 100 | –
CCCNC(=O)c1ccc(Cn2c(SCC3CCCCC3)nc3ccncc32)cc1 | > 100 | –
COCCCNC(=O)c1ccc(Cn2c(SCc3cccc([N+](=O)[O-])c3)nc3ccncc32)cc1 | > 100 | –
CCOCCCNC(=O)c1ccc(CSc2nc3ccncc3n2Cc2cccc(OC)c2)cc1 | > 100 | –
COCCCNC(=O)c1ccc(Cn2c(SCc3ccncc3)nc3ccncc32)cc1 | > 100 | –
CCOc1ccc(CCNC(=O)Cn2nc(-c3ccc(C)c(S(=O)(=O)N4CCCCC4)c3)c3ccccc3c2=O)cc1OCC | > 100 | –
COC(=O)c1ccc(Cn2c(SCC3CCCCC3)nc3ccncc32)cc1 | > 100 | –
O=C(c1ccccc1)c1ccc(Cn2c(SCC3CCCCC3)nc3ccncc32)cc1 | 72.4 | –
